Measured values reported in US20050013875A1, “Immunopotentiators in thermotherapy for cancer” (priority 2001, published 2005).

Tests used:
HSP70 [1] = test: In vitro HSP70 expression in heated MFH cells (immunoassay kit, Western Blot); assay type: cell-based; conditions: GGA 10^-5 M or 10^-4 M, 45° C. for 15 minutes, measured 6 hours after heating
Procedure: Cultivation of MFH cells was carried out by using a 100 mm Petri dish for culturing cells into which 10 ml of a medium had been charged, at 37° C. for 24 hours in an incubator into which 5% of carbon dioxide was added. As the medium, a medium comprising Dulbecco's modified Eagle's Medium that contains 10% fetal bovine serum and, as antibiotics, penicillin G potassium (100 U/ml) and streptomycin sulfate ([…]) was used.
After 6 hours from completion of the heating, a culture broth was removed from the Petri dish for culturing, the cells were washed twice with a physiological saline, a liquid to dissolve the cells attached to a HSP70 immunoassay kit was added to the cells with a predetermined amount to extract HSP70 from the cells. This was quantitated by the immunoassay kit. Also, the cells extract was subjected to electrophoresis, and an amount of HSP70 was qualitatively examined by Western Blot.

HSP70 [2] = test: HSP70 immunostain of tumor tissue after GGA administration; assay type: in vivo; conditions: F344 rat MFH tumor, GGA locally injected 12 hours after MCL, tumor cut out 2 hours after GGA, FIG. 1
Procedure: (§1) As experimental individuals, F344 rats (female, 7 to 8-weeks old) were used. MFH cells 1×10^7 cultured on Petri dish for cell-cultivation were dispersed in about 50 μl of a physiologically buffered saline, and then, the cells suspension was transplanted subcutaneously to a right leg of an experimental individual by using a scalp vein needle (25G×5/8″) (Terumo Corporation) to make a cancer-carried experimental individual. Nembutal (available from Dainippon Pharmaceutical Co., Ltd.) was used for anesthesia, and that diluted to five times (50 mg/kg body weight) was administered to abdominal cavity.
Under anesthesia of a rat, MCL with a concentration of 7.5 mg/ml and 3.3 mg of net weight magnetite was administered to the tumor tissue of the rat 10 days after transplantation of the MFH cells over 30 minutes by using a microsyringe pump (SP100i syringe pump, manufactured by WPI Co.), and thereafter, the rat was allowed to stand for 30 minutes. Magnetic field irradiation was carried out after 24 hours from injection of the MCL.

MFH cells = test: Tumor regression in MFH cancer-carried F344 rats under MCL hyperthermia (tumor tissue volume); assay type: in vivo, rat; conditions: (GGA+AMF) Group: hyperthermia using MCL and GGA in combination, magnetic field irradiation three times, among 8 individuals
Procedure: as §1
A slurry of the magnetite (particle diameter 10 nm; available from Toda Kogyo Corporation) was sufficiently washed with a distilled water to remove unnecessary ion components, subjected to ultrasonic wave treatment, to obtain colloidal magnetite. […]
Under anesthesia of experimental individuals, a longer diameter and a shorter diameter of the tumor tissue were measured by using calipers and calculated out from the following formula. […]

## geranylgeranyl acetone [GGA]
HSP70 [1]
  expressed amount of the HSP70 after applying thermal stress: increased depending on an amount of the GGA added
HSP70 [2]
  induction of HSP70 in tumor tissue (HSP70 stain): induction of HSP70 was confirmed
MFH cells
  individuals whose tumors were completely regressed and cured: 8 individuals
